We go through 6 molecules from patent US6852760B1, “Compositions and methods for treatment for glucose metabolism disorders” (Akesis Pharmaceuticals, Inc., priority 1998, dated 2005).

Like-named read-outs stand apart in the source and are kept apart here.

The conditions of series [1]: person with Type 2 diabetes; metformin 500 mg b.i.d.; combination after 2 months.
For series [2] the following is noted: person, Type 2 diabetes; metformin 1000 mg b.i.d.; combination after 3 months.
For series [3] the following is noted: cited from earlier work.
For series [4] the following is noted: after 14 weeks, cited from earlier work.
For series [5] the following is noted: hypertensive obese non-diabetic women; cited from earlier work.
For series [6] the following is noted: dietary; STZ-induced diabetic rats; cited from earlier work.
For series [7] the following is noted: NIDDM patients; cited from earlier work.
In series [8] the test system is Na/K ATPase. The conditions noted are these: catalytic cycle of Na/K ATPase; cited from earlier work.
The conditions of series [9]: treatment periods of up to one year; cited from earlier work.
For series [10] the following is noted: cited from earlier work. This is another data set of the same source.
The conditions of series [11]: rat, in vivo, po; cited from earlier work.

`CN(C)C(=N)NC(=N)N` [Metformin alone, N,N-dimethylimidodicarbonimidicdiamide]: in series [1], the Cholesterol was 229, the “Estimated Blood Sugar” value is given as 200 mg/dL, the “Fasting Blood Sugar” value was determined as 185 mg/dL and the HDL turned out to be 52. Further, in series [1], the “HbA1c level” value was 9.7, the LDL is 133 and the Triglycerides came to 220. Also, the HbA1c level in [2] is given as 8.3. Besides, the “HbA1c level after metformin therapy” value in series [3] (after 29 weeks, alone or in combination with sulfonylurea, improved from 8.6%) is listed as 7.1%. In addition, the “effect on serum lipids” value in series [3] (moderately obese Type 2 diabetics) was “lowering mean fasting serum triglycerides, total cholesterol, and LDL cholesterol levels”. Also, in series [4] (500 mg daily), the “reduction of HbA1c” value is on record as 0.9%. For the same molecule, in series [4] (2000 mg daily), the “reduction of HbA1c” value was 2.0%. In addition, in [5], the “blood pressure, plasma insulin, fibrinogen” value is “decreased blood pressure, fasting and glucose-stimulated plasma insulin fibrinogen”.

Take `CC(=O)N[C@@H](CS)C(=O)O` [NAC, N-acetylcysteine]: the “development of peripheral neuropathy” value in series [6] was “appeared to inhibit the development of peripheral neuropathy”. Moreover, the “reduction of apolipoprotein A1” value in series [7] is “over 20%”.

For `[O]=[V]([O-])([O-])[O-]` [vanadate], the “concentration inhibiting formation of EP” value in series [8] is on record as “less than 1 micromolar”.

In the case of `O=S(=O)([O-])[O-].[O]=[V+2]` [vanadyl sulfate], the apparent toxicity result in [9] is listed as “does not appear not to be associated with any apparent toxicity”.

Consider `Cc1c(C)c2c(c(C)c1O)CC[C@@](C)(CCC[C@H](C)CCC[C@H](C)CCCC(C)C)O2` [vitamin E, free 2R,4′R,8′R-alpha-tocopherol], for which the non-fatal myocardial infarction result in series [10] (400 or 800 I.U. daily, patients with coronary artery disease) is “dramatic and significant reduction of non-fatal myocardial infarction”. Further, in series [10] (400 or 800 I.U.), the “side effects versus placebo” value is given as “no difference between the alpha-tocopherol treatment (400 or 800 I.U.) or placebo groups for side effects”.

As for chromium picolinate, the “rate of absorption relative to chromium trichloride” value in [11] is recorded as “about four times greater than chromium trichloride”.
